C=C(C)[C@@H]1CC[C@]2(C(=O)O)CC[C@]3(C)[C@H](CC[C@@H]4[C@@]5(C)CC[C@H](O)C(C)(C)[C@@H]5CC[C@]43C)[C@@H]12
solubility (mole fraction)
Details | 278.2 K | 288.2 K | 298.2 K | 308.2 K | 318.2 K
in THF | 0.00975 | 0.0136 | 0.0206 | 0.0276 | 0.0388
in acetone | 0.000398 | 0.000502 | 0.000598 | 0.000829 | 0.00103
in ethanol | 0.000651 | 0.000819 | 0.00107 | 0.00135 | 0.00171
in ethyl acetate | 0.00045 | 0.000515 | 0.000733 | 0.000956 | 0.00124
in ethyl formate | 0.0002 | 0.000272 | 0.000428 | 0.000548 | 0.000786
in isopropanol | 0.000765 | 0.00092 | 0.0012 | 0.00149 | 0.00196
in methanol | 0.00019 | 0.000248 | 0.000339 | 0.000461 | 0.000734
in n-butanol | 0.00118 | 0.00149 | 0.00192 | 0.00234 | 0.003
in n-butyl acetate | 0.000824 | 0.001 | 0.0012 | 0.00159 | 0.00193
in n-hexanol | 0.00226 | 0.00283 | 0.00324 | 0.00378 | 0.00454
in n-pentanol | 0.00199 | 0.00228 | 0.00266 | 0.00309 | 0.00363
in n-propanol | 0.00103 | 0.00137 | 0.00178 | 0.00221 | 0.0028
in sec-butanol | 0.000821 | 0.00113 | 0.00149 | 0.00189 | 0.00245

From BigSolDB 2.1
